In assay [1] the test system is TNFα. As to the kind of experiment: TNFα levels of LPS and nigericin stimulated PBMCs (counter-screen). The assay is classed as cell-based. Conditions: Homo sapiens, PBMC. How it is done:
(§1) Human peripheral blood mononuclear cells (PBMCs), consisting of lymphocytes (T, B and NK cells), monocytes and dendritic cells, are freshly isolated from human peripheral blood from healthy donors. Cells are obtained through an IRB approved donor program by iXCells Biotechnologies where all the donors are tested for bacterial and viral infections. Cells are purified from peripheral blood using ficoll gradient centrifugation.
(§2) Fresh or cryopreserved PMBCs are seeded in V-bottom 96-well plate at 0.5-1×10^5 cells per well and incubated overnight at 37° C. with 5% CO2 in RPMI 1640 medium with GlutaMAX supplement, 4.5 g/L D-glucose, 10% Fetal Bovine Serum (FBS), […] Sodium Pyruvate, 1% Penicillin/Streptomycin, 10 mM HEPES and 0.05 mM of […]. Freshly isolated or cryopreserved KCs cells are seeded in flat-bottom 96-well plates at 0.6-1.5×10^5 cells/well and incubated overnight at 37° C., 5% CO2 in RPMI 1640 Medium with GlutaMAX supplement, FBS, 1% Penicillin/Streptomycin and 10 mM HEPES. The following day, the cells are primed with 100 ng/mL of lipopolysaccharides (LPS; Sigma Aldrich) in FBS-free RPMI 1640 for 3 h. After the priming step, the media is removed and PBMCs are pre-incubated with serial concentrations of test compounds (0.00017-10 uM) or vehicle (DMSO) for 30 min in FBS-free media prior to addition of the NLRP3 activator. Cells are then stimulated with 10 μM Nigericin (Sigma Aldrich; InvivoGen) for 1.5 h. Plates were centrifuged at 1,500 rpm for 3 minutes to pellet cells and supernatant was transferred into new plates for subsequent experiments.
For ELISA assays cells are seeded into 96-well plates. Post study, supernatants are removed and the levels of mature IL-1β, IL18 and TNFα (Quantikine ELISA, R&D systems) are measured in cell conditioned media by ELISA according to manufacturer's instructions.
TNFα levels of LPS and nigericin stimulated cells are measured by HTRF assay (Cisbio, Bedford, Mass.). […] Measuring TNFalpha production also serves as a technical counter-screen to eliminate compounds that interfere with the HTRF reagents. Thus compounds that inhibit both IL-1β and TNFα levels are triaged for either being non-selective for inflammasome or interfering with the HTRF readout.
(A counterscreen serves to expose hits that act by an unwanted route or on another target.)

Assay [2] deals with T1, NLRP3 inflammasome (Homo sapiens, UniProt Q96P20).
T1 construct: freshly isolated from human peripheral blood from healthy donors; StemCells Technologies; host or cells: primary human PBMCs
As to the kind of experiment: NLRP3 inflammasome activation assay in LPS-primed, nigericin-stimulated PBMCs, IL-1β release. The following applies: 10 μM nigericin. The class given is cell-based. The gist of the method: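 Fresh or cryopreserved human PBMCs primed with 100 ng/mL LPS for 3 h, pre-incubated 30 min with compound (0.00017-10 uM, or 2-fold 20-point series from 40 μM), then stimulated with 10 μM nigericin for 1.5 h at 37 °C. Supernatant IL-1β measured by ELISA or by HTRF (665/620 ratio).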

For assay [3], the system named is PBMCs. As to the kind of experiment: CTG (CellTiter-Glo) viability assay of compound-treated LPS and nigericin stimulated PBMCs. The class given is cell-based, human. The following applies: Homo sapiens, PBMC. As to the method: as §1, §2
Viability of compound treated cells is measured using CellTiter-Glo® assay (Promega, Madison, Wis.) that measures the ATP content of cells which is proportional to the number of live cells within a well. This is a counter-screen to establish that the reduction of IL-1β levels in LPS and nigericin stimulated and compound treated cells is not due to cytotoxicity, but rather through the inhibition of the inflammasome pathway. Compounds inhibiting NRLP3 inflammasome activation ultimately increase the viability of LPS and nigericin stimulated cells by blocking NLRP3 mediated pyroptosis that would otherwise lead to cell lysis.
Background: ATP-based viability assays read luminescence as a measure of living cells.

For assay [4], the system named is THP-1 ASC-GFP cells. The assay is described as follows: THP-1 ASC-GFP speck assay (NLRP3 inflammasome activation, nigericin). Conditions: THP1-ASC-GFP; PMA-differentiated, LPS primed, 10 μM nigericin. The assay is classed as cell-based. Summed up:
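PMA-differentiated (500 ng/ml, overnight) THP-1 ASC-GFP cells primed with LPS 1 μg/mL for 3 h, pre-treated 30 min with compound (20-point, 2-fold from 40 μM), then nigericin 10 μM for 90 min. After fixation, imaging gives % cells with ASC-GFP specks against Hoechst-counted nuclei.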

Where [5] appears, read: LPS and nigericin stimulated cells, read-out: TNFa pIC50 (converted).
Where [6] appears, read: LPS 100 ng/mL priming, read-out: IL-1B pIC50 (converted).
[7] abbreviates: LPS and nigericin stimulated cells, read-out: CTG pIC50 (converted).
Where [8] appears, read: PBMC, LPS priming, read-out: PMBC IL-1β IC50.

The results in this text go back to patent publication US11560391B2, “Sulfonylurea compounds as inhibitors of interleukin-1 activity” (Genentech, Inc., priority 2018, dated 2023).

SMILES strings stand for the structures. Read-outs that look alike come from different tables or passages of the source.

T1 sequence (Q96P20 whole entry): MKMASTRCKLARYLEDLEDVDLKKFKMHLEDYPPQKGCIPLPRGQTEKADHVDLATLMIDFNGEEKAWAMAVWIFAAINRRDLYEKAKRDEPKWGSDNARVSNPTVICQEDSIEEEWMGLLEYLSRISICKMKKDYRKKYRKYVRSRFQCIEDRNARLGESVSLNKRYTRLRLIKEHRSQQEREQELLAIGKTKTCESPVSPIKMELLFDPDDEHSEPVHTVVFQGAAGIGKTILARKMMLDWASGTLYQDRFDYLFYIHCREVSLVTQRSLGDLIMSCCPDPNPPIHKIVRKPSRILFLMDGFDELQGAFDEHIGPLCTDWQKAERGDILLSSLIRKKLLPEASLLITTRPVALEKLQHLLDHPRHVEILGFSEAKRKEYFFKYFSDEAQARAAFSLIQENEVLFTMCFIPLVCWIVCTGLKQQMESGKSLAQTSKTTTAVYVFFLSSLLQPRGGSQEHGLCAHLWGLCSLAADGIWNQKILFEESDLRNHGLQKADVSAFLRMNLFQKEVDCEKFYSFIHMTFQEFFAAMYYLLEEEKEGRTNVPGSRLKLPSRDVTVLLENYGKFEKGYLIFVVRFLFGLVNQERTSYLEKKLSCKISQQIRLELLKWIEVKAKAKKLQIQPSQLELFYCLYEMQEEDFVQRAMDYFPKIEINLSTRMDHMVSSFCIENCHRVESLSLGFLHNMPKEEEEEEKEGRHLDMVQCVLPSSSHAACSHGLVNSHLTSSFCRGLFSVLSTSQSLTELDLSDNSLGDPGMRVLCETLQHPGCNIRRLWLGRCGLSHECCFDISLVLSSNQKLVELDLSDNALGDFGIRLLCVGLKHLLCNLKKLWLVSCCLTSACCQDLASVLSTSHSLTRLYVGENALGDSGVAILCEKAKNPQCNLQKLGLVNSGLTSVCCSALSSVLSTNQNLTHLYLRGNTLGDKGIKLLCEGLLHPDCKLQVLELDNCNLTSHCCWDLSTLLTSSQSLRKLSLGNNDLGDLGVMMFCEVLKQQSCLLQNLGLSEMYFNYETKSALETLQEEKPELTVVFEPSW

For `CC(C)NC(=O)NS(=O)(=O)c1cnn2c1OCC(CN)C2` (centres unmarked), the IC50 in assay [1] (setting [5]) was over 10 µM; in assay [2] (setting [6]), over 10000 nM; in assay [3] (setting [7]), over 10 µM.
For `CC(C)c1nn(CC2CC2)c(C(C)C)c1NC(=O)NS(=O)(=O)c1cnn2c1OCCC2` [Example 35, N-((1-(cyclopropylmethyl)-3,5-diisopropyl-1H-pyrazol-4-yl)carbamoyl)-6,7-dihydro-5H-pyrazolo[5,1-b][1,3]oxazine-3-sulfonamide], the IC50 in assay [4] was determined as 1400 nM; in assay [2] (setting [8]), 950 nM; in assay [3] (read-out: PMBC CTG IC50), 0.12 µM.
The like results for `COc1cc(C(C)C)c(NC(=O)NS(=O)(=O)c2cnn3c2OCC(CNC(C)=O)C3)c(C(C)C)n1` (racemic) [Example 40, N-((3-(N-((2,4-diisopropyl-6-methoxypyridin-3-yl)carbamoyl)sulfamoyl)-6,7-dihydro-5H-pyrazolo[5,1-b][1,3]oxazin-6-yl)methyl)acetamide] were, in that order, 720 nM, 1500 nM and 1.25 µM.
Turning to `CC(C)NC(=O)NS(=O)(=O)c1cnn2c1OCC(CN)C2` (racemic) [Example 56, 6-(aminomethyl)-N-(isopropylcarbamoyl)-6,7-dihydro-5H-pyrazolo[5,1-b][1,3]oxazine-3-sulfonamide], the values for the IC50 in assay [1] (read-out: PMBC TNFα IC50), in assay [2] (setting [8]) and in assay [3] (read-out: PMBC CTG IC50) were over 10 µM, over 10000 nM and over 10 µM, respectively.
With `CCn1nc(C(C)C)c(NC(=O)NS(=O)(=O)c2cnn3c2OC[C@@H](OC)C3)c1C(C)C` [Example 39a, (S)—N-((1-ethyl-3,5-diisopropyl-1H-pyrazol-4-yl)carbamoyl)-6-methoxy-6,7-dihydro-5H-pyrazolo[5,1-b][1,3]oxazine-3-sulfonamide], the values for the IC50 in assay [4], in assay [2] (setting [8]) and in assay [3] (read-out: PMBC CTG IC50) were 400 nM, 1240 nM and 0.97 µM, respectively.
For the compound `Cc1cc(C(C)C)c(NC(=O)NS(=O)(=O)c2cnn3c2OCCC3)c(C(C)C)n1` [drawing 415], the IC50 in assay [1] (setting [5]) is over 10 µM; in assay [2] (setting [6]), 1000 to 10000 nM; in assay [3] (setting [7]), 1 to 10 µM.
The matching figures for `CC(C)c1ncc2c(c1NC(=O)NS(=O)(=O)c1cnn3c1OCCC3)CCC2` [drawing 422]: over 10 µM, over 10000 nM and over 10 µM.
For `COc1cc(C(C)C)c(NC(=O)NS(=O)(=O)c2cnn3c2OC[C@@H](N2CC(OC)C2)C3)c(C(C)C)n1` [Example 42a, Sodium (S)—N-((2,4-diisopropyl-6-methoxypyridin-3-yl)carbamoyl)-6-(3-methoxyazetidin-1-yl)-6,7-dihydro-5H-pyrazolo[5,1-b][1,3]oxazine-3-sulfonamide], the IC50 in assay [4] amounted to 1100 nM; in assay [2] (setting [8]), 120 nM; in assay [3] (read-out: PMBC CTG IC50), 0.24 µM.
The matching figures for `CN[C@@H]1COc2c(S(=O)(=O)NC(=O)Nc3c(C(C)C)cc(OC)nc3C(C)C)cnn2C1` [Example 41a, (S)—N-((2,4-diisopropyl-6-methoxypyridin-3-yl)carbamoyl)-6-(methylamino)-6,7-dihydro-5H-pyrazolo[5,1-b][1,3]oxazine-3-sulfonamide]: 680 nM, 370 nM and 0.013 µM.
The matching figures for `CC(C)c1nn(C(C)C)c(C(C)C)c1NC(=O)NS(=O)(=O)c1cnn2c1OCCC2` [Example 33, N-((1,3,5-triisopropyl-1H-pyrazol-4-yl)carbamoyl)-6,7-dihydro-5H-pyrazolo[5,1-b][1,3]oxazine-3-sulfonamide]: 4000 nM, 4960 nM and 4.51 µM.
As for `CC(C)c1cc(C(F)(F)F)nc(C(C)C)c1NC(=O)NS(=O)(=O)c1cnn2c1OCCC2` [drawing 421], the IC50 in assay [1] (setting [5]) was over 10 µM; in assay [2] (setting [6]) it was 100 to 1000 nM; in assay [3] (setting [7]), under 0.1 µM.
With `CC(C)c1ncc2c(c1NC(=O)NS(=O)(=O)c1cnn3c1OCCC3)CCC2` [Example 55, N-((3-isopropyl-6,7-dihydro-5H-cyclopenta[c]pyridin-4-yl)carbamoyl)-6,7-dihydro-5H-pyrazolo[5,1-b][1,3]oxazine-3-sulfonamide], the IC50 in assay [1] (read-out: PMBC TNFα IC50 (μM)) is over 10 µM; in assay [2] (setting [8]), over 10000 nM; in assay [3] (read-out: PMBC CTG IC50 (μM)), over 10 µM.
As to `COc1cc(C(C)C)c(NC(=O)NS(=O)(=O)c2cnn3c2OCCC3)c(C(C)C)n1` [Example 30, N-((2,4-diisopropyl-6-methoxypyridin-3-yl)carbamoyl)-6,7-dihydro-5H-pyrazolo[5,1-b][1,3]oxazine-3-sulfonamide], the figures for the IC50 in assay [4], in assay [2] (setting [8]) and in assay [3] (read-out: PMBC CTG IC50) were 1800 nM, 850 nM and 0.73 µM, respectively.
Consider `COc1cc(C(C)C)c(NC(=O)NS(=O)(=O)c2cnn3c2OC[C@@H](N(C)C)C3)c(C(C)C)n1` [drawing 419], for which the IC50 in assay [1] (setting [5]) was over 10 µM; in assay [2] (setting [6]), 100 to 1000 nM; in assay [3] (setting [7]), 0.1 to 1 µM.
On to `CO[C@@H]1COc2c(S(=O)(=O)NC(=O)Nc3c(C(C)C)nn(C)c3C(C)C)cnn2C1` [Example 38a, (S)—N-((3,5-diisopropyl-1-methyl-1H-pyrazol-4-yl)carbamoyl)-6-methoxy-6,7-dihydro-5H-pyrazolo[5,1-b][1,3]oxazine-3-sulfonamide], for which the IC50 turned out to be 2500 nM in assay [4], 1140 nM in assay [2] (setting [8]) and 0.68 µM in assay [3] (read-out: PMBC CTG IC50).
The like results for `Cc1onc(-c2ccccc2)c1NC(=O)NS(=O)(=O)c1cnn2c1OCCC2` [Example 8, N-((5-methyl-3-phenylisoxazol-4-yl)carbamoyl)-6,7-dihydro-5H-pyrazolo[5,1-b][1,3]oxazine-3-sulfonamide] were, in that order, over 20000 nM, over 10000 nM and over 10 µM.
The matching figures for `CCOc1cc(C(C)C)c(NC(=O)NS(=O)(=O)c2cnn3c2OCCC3)c(C(C)C)n1` [Example 50, N-((6-ethoxy-2,4-diisopropylpyridin-3-yl)carbamoyl)-6,7-dihydro-5H-pyrazolo[5,1-b][1,3]oxazine-3-sulfonamide]: 4700 nM, 2810 nM and 1.18 µM.
In the case of `CNc1cc(C(C)C)c(NC(=O)NS(=O)(=O)c2cnn3c2OCCC3)c(C(C)C)n1` [drawing 420], the results for the IC50 in assay [1] (setting [5]), in assay [2] (setting [6]) and in assay [3] (setting [7]) were over 10 µM, 1000 to 10000 nM and 0.1 to 1 µM, respectively.
As for `CCn1nc(C(C)C)c(NC(=O)NS(=O)(=O)c2cnn3c2OCCC3)c1C(C)C` [Example 34, N-((1-ethyl-3,5-diisopropyl-1H-pyrazol-4-yl)carbamoyl)-6,7-dihydro-5H-pyrazolo[5,1-b][1,3]oxazine-3-sulfonamide], the figures for the IC50 in assay [4], in assay [2] (setting [8]) and in assay [3] (read-out: PMBC CTG IC50) were 3700 nM, 3190 nM and 1.98 µM, respectively.
The matching figures for `CC(C)c1cc(C#N)nc(C(C)C)c1NC(=O)NS(=O)(=O)c1cnn2c1OCCC2` [Example 49, N-((6-cyano-2,4-diisopropylpyridin-3-yl)carbamoyl)-6,7-dihydro-5H-pyrazolo[5,1-b][1,3]oxazine-3-sulfonamide]: 2500 nM, 1250 nM and 0.56 µM.
Consider `Cc1cc(C2CC2)nc(NC(=O)NS(=O)(=O)c2cnn3c2OCCC3)n1` [Example 21, N-((4-cyclopropyl-6-methylpyrimidin-2-yl)carbamoyl)-6,7-dihydro-5H-pyrazolo[5,1-b][1,3]oxazine-3-sulfonamide], for which the IC50 in assay [4] is 12000 nM; in assay [2] (setting [8]), over 10000 nM.
